The text below walks through data of ChEMBL document CHEMBL1201862, “PubChem BioAssay data set” (2004).

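1) Cells in 96-well plates. 2) Compound, 48 h, 5 concentrations. 3) Linear interpolation between surrounding doses. 4) Unreached endpoint = highest concentration. GI50: concentration for 50% inhibition of growth.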 Active and inactive are the calls of the source. No stated cut-off is given here; in the data, active = GI50 up to about 1.1 µM and inactive = higher.

Some test systems named below: HOP-62; NCI-H23; RPMI-8226; SK-MEL-2; SN12C; OVCAR-5; SF-539; UACC-62; KM12; Malme-3M; SNB-19; U-251; NCI-H460; SR; COLO 205; LOX IMVI; RXF 393; OVCAR-4.
What all share (test): NCI anticancer screen, dose series, 48 h

Regarding `CCN(CC)c1oc(N(CC)CC)c(C(=O)Nc2ccccn2)c(=O)c1C(C)=O`, the GI50 in the test with HOP-62, in the test with NCI-H23, with RPMI-8226, in the test with SK-MEL-2, in the test with SN12C and in the test on OVCAR-5 was > 100 µM (inactive) each time. The GI50 in the test with SF-539, in the test with UACC-62, with KM12, in the test on Malme-3M, with SNB-19 and in the test with U-251 was > 100 µM (inactive) in each case. Moreover, the GI50 with NCI-H460, with SR and with COLO 205 was > 100 µM (inactive) throughout.

For the molecule `O=C(O)C12C3C4C1C1C2C3C1(Br)C41OCCO1` (stereo not drawn), the GI50 in the test on HOP-62, with NCI-H23, in the test on RPMI-8226, in the test with LOX IMVI, with SK-MEL-2 and with OVCAR-5 was > 100 µM (inactive) throughout. Moreover, the GI50 in the test on SF-539, with KM12, in the test on Malme-3M, in the test on SNB-19, with U-251 and with NCI-H460 was > 100 µM (inactive) each time. In addition, the GI50 in the test with RXF 393 and with COLO 205 was > 100 µM (inactive) each time.

With `CCCc1nc(N)nc(C(=O)Nc2cccc(C(F)(F)F)c2)c1CC`, the GI50 in the test on HOP-62 was > 100 µM (inactive); with NCI-H23, > 100 µM (inactive); with RPMI-8226, 76.6 µM (inactive); with LOX IMVI, > 100 µM (inactive); in the test on SK-MEL-2, > 100 µM (inactive); in the test on SN12C, > 100 µM (inactive). The GI50 in the test with OVCAR-5, in the test on OVCAR-4, with SF-539, in the test with UACC-62, in the test with KM12 and with Malme-3M was > 100 µM (inactive) throughout. Also, the GI50 in the test with SNB-19, in the test on U-251, with NCI-H460 and in the test on RXF 393 was > 100 µM (inactive) in each case.

Turning to `Cc1c2cc[n+](C)cc2c(C)c2c1[nH]c1ccc(Oc3ccccc3)cc12`, the GI50 was 0.518 µM (active) in the test on HOP-62; 0.53 µM (active) in the test with NCI-H23; 2.64 µM (inactive) with RPMI-8226; 1.61 µM (inactive) in the test on LOX IMVI; 0.832 µM (active) with SK-MEL-2; 0.303 µM (active) in the test on SN12C. Also, the GI50 was 2.51 µM (inactive) with OVCAR-5; 2.56 µM (inactive) with OVCAR-4; 1.26 µM (inactive) in the test with SF-539; 1.43 µM (inactive) with UACC-62; 0.736 µM (active) in the test with KM12; 1.71 µM (inactive) with Malme-3M. Also, the GI50 in the test with SNB-19 was 0.506 µM (active); in the test with U-251, 0.236 µM (active); with COLO 205, 0.845 µM (active).

In the case of `COc1ccc2nc(NC(=O)C(=O)C(C#N)c3ccc([N+](=O)[O-])cc3)sc2c1` (stereo not drawn), the GI50 in the test with HOP-62 is > 100 µM (inactive); in the test on NCI-H23, > 100 µM (inactive); in the test with RPMI-8226 it was 31.2 µM (inactive); in the test with LOX IMVI, > 100 µM (inactive); with SK-MEL-2, > 100 µM (inactive); with SN12C it was > 100 µM (inactive). For the same molecule, the GI50 is > 100 µM (inactive) with OVCAR-5; > 100 µM (inactive) with OVCAR-4; > 100 µM (inactive) in the test on SF-539; 46 µM (inactive) in the test with UACC-62; > 100 µM (inactive) in the test on KM12; > 100 µM (inactive) in the test on Malme-3M. The GI50 with SNB-19, in the test with U-251, with NCI-H460, in the test on RXF 393 and in the test with COLO 205 was > 100 µM (inactive) each time.

For `Nc1ccc(C(=O)NN2C(=O)C(Cl)C2c2cc(Br)ccc2O)cc1` (stereo not drawn), the GI50 in the test with HOP-62 is > 100 µM (inactive); in the test on NCI-H23, > 100 µM (inactive); in the test on RPMI-8226, > 100 µM (inactive); in the test on LOX IMVI, 41.2 µM (inactive); in the test on SN12C, > 100 µM (inactive); with OVCAR-5, > 100 µM (inactive). The GI50 in the test on OVCAR-4, with SF-539, in the test with UACC-62, in the test on KM12, in the test with Malme-3M and in the test with SNB-19 was > 100 µM (inactive) in each case. Also, the figures for the GI50 with U-251, in the test with NCI-H460 and in the test on COLO 205 were 32.6 µM (inactive), > 100 µM (inactive) and > 100 µM (inactive), respectively.

For `NCCCCNc1ccc2c(=O)[nH][nH]c(=O)c2c1`, the GI50 with HOP-62, with NCI-H23, with LOX IMVI, in the test with SK-MEL-2, in the test on SN12C and in the test on OVCAR-5 was > 100 µM (inactive) in each case. Moreover, the GI50 in the test with OVCAR-4, in the test with SF-539, in the test with UACC-62, in the test with KM12, in the test with Malme-3M and in the test with SNB-19 was > 100 µM (inactive) throughout. Further, the GI50 with U-251, in the test with RXF 393, in the test with SR and with COLO 205 was > 100 µM (inactive) in each case.

Turning to `O=C(CN1CCOCC1)Nc1nc(-c2ccc(Cl)cc2)cs1`, the GI50 in the test on HOP-62 was 22.6 µM (inactive); in the test with NCI-H23, 15.1 µM (inactive); with RPMI-8226 it was 13.6 µM (inactive); in the test with LOX IMVI it was 22.2 µM (inactive); in the test on SK-MEL-2, 26.5 µM (inactive); with SN12C, 34.3 µM (inactive). The GI50 in the test on OVCAR-5 is 89.7 µM (inactive); in the test with OVCAR-4, 25.7 µM (inactive); with SF-539 it was 44.4 µM (inactive); in the test with UACC-62, 20 µM (inactive); in the test on KM12, 19.5 µM (inactive); in the test with Malme-3M it was 23.1 µM (inactive). Further, the GI50 was 39.1 µM (inactive) with SNB-19, 24.2 µM (inactive) in the test with U-251, 28.3 µM (inactive) in the test with NCI-H460 and 31.9 µM (inactive) in the test with COLO 205.

As for `COc1cc(OC)c(/C=C2\N=C(C)N(Nc3nnc(NN4C(=O)/C(=C/c5c(OC)cc(OC)cc5OC)N=C4C)c4ccccc34)C2=O)c(OC)c1`, the GI50 with HOP-62, in the test with NCI-H23, in the test with RPMI-8226, in the test with LOX IMVI, in the test with SN12C and in the test with OVCAR-5 was > 100 µM (inactive) throughout. In addition, the GI50 with OVCAR-4, with SF-539, with UACC-62, in the test on KM12, in the test on SNB-19 and in the test with U-251 was > 100 µM (inactive) each time. Moreover, the GI50 in the test with NCI-H460, in the test with RXF 393, in the test on SR and with COLO 205 was > 100 µM (inactive) throughout.

On to `CCCCCCCCCCCOc1ccc(C(=O)C(=O)c2ccc(OCCCCCCCCCCC)c(OCCCCCCCCCCC)c2)cc1OCCCCCCCCCCC`, for which the GI50 with HOP-62, in the test on NCI-H23, in the test on RPMI-8226, in the test with LOX IMVI, with SK-MEL-2 and with SN12C was > 100 µM (inactive) in each case. In addition, the GI50 in the test on OVCAR-5, in the test with OVCAR-4, in the test on SF-539, in the test on UACC-62, with KM12 and with Malme-3M was > 100 µM (inactive) throughout. In addition, the GI50 in the test with SNB-19, in the test with U-251, in the test on NCI-H460 and in the test on COLO 205 was > 100 µM (inactive) each time.

Consider `CC(=O)c1ccccc1NC(=O)C(=O)C(C(=O)c1ccc2ccccc2c1)C1OC(=O)c2ccccc21` (stereo not drawn), for which the GI50 was 10.7 µM (inactive) in the test with HOP-62; 6.49 µM (inactive) in the test on NCI-H23; 6.11 µM (inactive) with RPMI-8226; 7.71 µM (inactive) in the test with LOX IMVI; 10.2 µM (inactive) with SK-MEL-2; 13.7 µM (inactive) in the test on SN12C. In addition, the GI50 in the test on OVCAR-5 is 22.2 µM (inactive); in the test on OVCAR-4 it was 17.2 µM (inactive); in the test on SF-539, 4.72 µM (inactive); in the test on UACC-62, 13 µM (inactive); in the test on KM12, 18.3 µM (inactive); in the test with Malme-3M, 3.7 µM (inactive). In addition, the GI50 was 4.73 µM (inactive) in the test on SNB-19, 6.75 µM (inactive) with U-251, 5.43 µM (inactive) with NCI-H460 and 14.9 µM (inactive) in the test on COLO 205.

Take `CCc1nc(N)nc(C(=O)NCCNC(=O)c2nc(N)nc(CC)c2C)c1C`: the GI50 in the test with HOP-62, in the test with NCI-H23, in the test on RPMI-8226, with LOX IMVI, in the test on SK-MEL-2 and with SN12C was > 100 µM (inactive) in each case. The GI50 in the test on OVCAR-5, in the test on OVCAR-4, with SF-539, in the test with UACC-62, with KM12 and in the test on Malme-3M was > 100 µM (inactive) in each case. The GI50 in the test on SNB-19, in the test with U-251, in the test with NCI-H460 and in the test on RXF 393 was > 100 µM (inactive) in each case.
